From patent US9668979B2, “Piperaquine microcapsules and compositions containing them” (ADARE PHARMACEUTICALS S.R.L., priority 2013, dated 2017)

Assay: Compatibility of piperaquine with the coacervation process (heating/cooling cycles; assay, Karl Fischer, XRPD)
Type: physicochemical
Conditions: heating/cooling cycles mimicking the process
Method: Water content: Karl Fischer titration: Ph. Eur. 2.5.12 Method; following sample titration conditions are applied: sample solvent: methanol: formamide 1:1; sample weight: 50 mg; the value of water content in a sample is expressed as % w/w. X-Ray Powder Diffraction (XRPD) measurements are performed on a Philips X′Pert PRO diffractometer (Bragg-Brentano geometry). A compatibility study is carried out on piperaquine to assess the compatibility of the drug with the coacervation process. In particular, piperaquine undergoes heating/cooling cycles mimicking thermal excursions of the process. Then, the following tests are performed both before and after thermal cycles to ascertain the stability of piperaquine: water content analysis (Karl Fisher test); effect of mechanical stress; crystalline structure by XRPD.

- Effect of heating/cooling cycle on the drug: not affected by heating/cooling cycle
SMILES: Clc1ccc2c(N3CCN(CCCN4CCN(c5ccnc6cc(Cl)ccc56)CC4)CC3)ccnc2c1 [PQP•4H2O, 4,4′-(1,3-propanediyldi-4,1-piperazinediyl) bis(7-chloroquinoline) phosphate hydrate (1:4:4)]
